{
  "source": "the Kinase Knowledgebase extract (Sharma et al. 2016)",
  "data": [
    {"target": "EGFR (Human), P00533 [T790M/L858R]", "sequence (P00533 whole entry T790M/L858R, looked up)": "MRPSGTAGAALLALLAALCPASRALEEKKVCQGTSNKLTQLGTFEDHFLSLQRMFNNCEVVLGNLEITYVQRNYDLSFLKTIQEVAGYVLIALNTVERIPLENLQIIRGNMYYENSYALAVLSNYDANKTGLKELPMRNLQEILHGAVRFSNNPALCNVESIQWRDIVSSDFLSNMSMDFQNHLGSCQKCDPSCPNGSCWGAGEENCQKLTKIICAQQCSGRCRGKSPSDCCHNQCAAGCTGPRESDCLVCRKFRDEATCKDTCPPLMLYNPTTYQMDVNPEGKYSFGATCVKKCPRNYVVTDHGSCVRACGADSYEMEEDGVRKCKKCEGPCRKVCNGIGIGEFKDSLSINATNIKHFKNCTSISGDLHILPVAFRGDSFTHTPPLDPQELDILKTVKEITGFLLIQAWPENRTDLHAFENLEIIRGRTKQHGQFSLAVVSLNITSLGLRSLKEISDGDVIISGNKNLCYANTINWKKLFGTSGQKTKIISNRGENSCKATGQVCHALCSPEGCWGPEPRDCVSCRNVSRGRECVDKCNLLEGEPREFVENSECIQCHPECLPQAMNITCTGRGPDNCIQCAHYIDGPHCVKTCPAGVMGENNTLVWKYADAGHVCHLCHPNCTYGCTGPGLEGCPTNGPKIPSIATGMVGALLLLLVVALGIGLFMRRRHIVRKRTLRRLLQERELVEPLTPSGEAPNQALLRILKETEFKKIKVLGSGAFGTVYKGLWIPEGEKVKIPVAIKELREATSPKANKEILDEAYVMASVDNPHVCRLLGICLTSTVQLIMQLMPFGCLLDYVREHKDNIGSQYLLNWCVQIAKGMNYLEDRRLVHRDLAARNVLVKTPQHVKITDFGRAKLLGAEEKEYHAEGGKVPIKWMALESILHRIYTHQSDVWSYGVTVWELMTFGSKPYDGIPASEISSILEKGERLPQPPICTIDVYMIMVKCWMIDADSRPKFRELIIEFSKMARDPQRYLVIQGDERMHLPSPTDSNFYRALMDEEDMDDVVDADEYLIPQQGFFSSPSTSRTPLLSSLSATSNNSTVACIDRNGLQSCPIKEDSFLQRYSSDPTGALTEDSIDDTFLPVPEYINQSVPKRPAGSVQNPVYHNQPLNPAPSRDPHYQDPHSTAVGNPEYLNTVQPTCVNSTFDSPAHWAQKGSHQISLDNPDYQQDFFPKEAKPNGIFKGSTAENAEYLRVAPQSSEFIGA", "units": {"IC50": "nM"}, "values": [
      {"smiles": "CN(C)C/C=C/C(=O)Nc1cccc(Nc2cc(Nc3ccc(F)c(Cl)c3)ncn2)n1", "IC50": "≤ 10"},
      {"smiles": "O=C(C=CCN1CCCC1)Nc1cccc(Nc2cc(Nc3ccc(F)c(Cl)c3)ncn2)c1", "IC50": "≤ 10"}
    ]},
    {"target": "EGFR (human), P00533 [WT]", "sequence (P00533 whole entry, looked up)": "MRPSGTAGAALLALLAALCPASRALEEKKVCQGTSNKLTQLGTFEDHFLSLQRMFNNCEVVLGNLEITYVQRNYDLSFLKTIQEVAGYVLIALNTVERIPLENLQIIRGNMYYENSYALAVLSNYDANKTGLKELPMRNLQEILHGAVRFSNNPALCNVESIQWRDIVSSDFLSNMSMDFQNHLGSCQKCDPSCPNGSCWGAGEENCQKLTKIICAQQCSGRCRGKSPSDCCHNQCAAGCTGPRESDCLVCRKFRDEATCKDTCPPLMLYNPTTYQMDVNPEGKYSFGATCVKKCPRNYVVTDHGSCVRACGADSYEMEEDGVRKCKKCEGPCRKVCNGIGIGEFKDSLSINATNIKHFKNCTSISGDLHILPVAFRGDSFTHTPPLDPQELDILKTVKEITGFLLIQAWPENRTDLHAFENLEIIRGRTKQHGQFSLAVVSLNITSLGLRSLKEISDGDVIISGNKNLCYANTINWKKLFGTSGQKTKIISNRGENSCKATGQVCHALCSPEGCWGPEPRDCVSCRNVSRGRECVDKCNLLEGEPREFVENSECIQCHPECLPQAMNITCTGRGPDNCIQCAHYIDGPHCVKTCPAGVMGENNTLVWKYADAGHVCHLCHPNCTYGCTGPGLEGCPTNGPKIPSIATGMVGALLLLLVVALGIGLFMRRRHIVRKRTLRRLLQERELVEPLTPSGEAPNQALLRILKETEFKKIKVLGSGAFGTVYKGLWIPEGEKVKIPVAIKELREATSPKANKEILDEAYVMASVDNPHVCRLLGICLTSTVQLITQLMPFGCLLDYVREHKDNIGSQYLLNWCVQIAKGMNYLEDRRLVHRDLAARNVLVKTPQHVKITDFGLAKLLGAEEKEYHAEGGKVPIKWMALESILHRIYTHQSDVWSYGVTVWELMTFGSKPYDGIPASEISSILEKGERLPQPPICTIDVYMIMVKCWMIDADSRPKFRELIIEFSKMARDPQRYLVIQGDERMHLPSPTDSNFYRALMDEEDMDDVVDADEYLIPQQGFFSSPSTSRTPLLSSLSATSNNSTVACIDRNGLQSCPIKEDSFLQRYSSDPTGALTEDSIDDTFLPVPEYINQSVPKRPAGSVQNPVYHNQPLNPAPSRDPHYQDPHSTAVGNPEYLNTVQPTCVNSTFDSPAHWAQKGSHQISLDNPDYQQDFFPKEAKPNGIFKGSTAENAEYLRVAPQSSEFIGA", "units": {"IC50": "nM"}, "values": [
      {"smiles": "CC#CC(=O)c1cccc(Nc2cc(Nc3ccc(Oc4ccccc4)cc3)ncn2)c1", "IC50": "≤ 10"},
      {"smiles": "O=C(CCl)Nc1cccc(Nc2cc(Nc3ccc(F)c(Cl)c3)ncn2)c1", "IC50": "≤ 10"},
      {"smiles": "C=CC(=O)Nc1cccc(Nc2cc(Oc3ccc(OC)cc3)ncn2)n1", "IC50": "≤ 10"},
      {"smiles": "C=CS(=O)(=O)Nc1cccc(Nc2cc(Oc3cccc(C(F)(F)F)c3)ncn2)c1", "IC50": "≤ 10"},
      {"smiles": "C=CC(=O)N(C)c1cccc(Nc2cc(Nc3ccc(Oc4ccccc4)cc3)ncn2)n1", "IC50": "≤ 10"},
      {"smiles": "C=CC(=O)Nc1cccc(Nc2cc(Nc3ccc(OCc4ccccn4)c(Cl)c3)ncn2)c1", "IC50": "≤ 10"},
      {"smiles": "C=CC(=O)Nc1cccc(Nc2cc(Oc3cccc(OC)c3)ncn2)n1", "IC50": "≤ 10"},
      {"smiles": "CN(C)C/C=C/C(=O)Nc1cccc(Nc2cc(Nc3ccc(OCc4cccc(F)c4)c(Cl)c3)ncn2)c1", "IC50": "≤ 10"},
      {"smiles": "C=CC(=O)Nc1cccc(Nc2cc(Oc3cccc(C)c3)ncn2)n1", "IC50": "≤ 10"},
      {"smiles": "C=CC(=O)Nc1cccc(Nc2cc(Nc3cccc(Br)c3)ncn2)c1", "IC50": "≤ 10"},
      {"smiles": "C=CC(=O)Nc1cccc(Nc2cc(Nc3cccc(Oc4ccccc4)c3)ncn2)c1", "IC50": "≤ 10"},
      {"smiles": "C=CC(=O)Nc1cccc(Nc2cc(Nc3ccc(Oc4ccccc4)cc3)ncn2)n1", "IC50": "≤ 10"},
      {"smiles": "C=CS(=O)(=O)Nc1cccc(Nc2cc(Nc3ccc(OCc4cccc(F)c4)c(Cl)c3)ncn2)c1", "IC50": "≤ 10"},
      {"smiles": "C=CC(=O)Nc1cccc(Nc2cc(Nc3ccccc3)ncn2)c1", "IC50": "≤ 10"},
      {"smiles": "C=CS(=O)(=O)Nc1cccc(Nc2cc(Nc3cccc(C)c3)ncn2)c1", "IC50": "≤ 10"},
      {"smiles": "CN(C)C/C=C/C(=O)Nc1cccc(Nc2cc(Nc3ccc(F)c(Cl)c3)ncn2)n1", "IC50": "≤ 10"},
      {"smiles": "CN(C)C/C=C/C(=O)Nc1cccc(Nc2cc(Nc3ccccc3)ncn2)n1", "IC50": "≤ 10"},
      {"smiles": "O=C(C=CCN1CCCC1)Nc1cccc(Nc2cc(Nc3ccc(F)c(Cl)c3)ncn2)c1", "IC50": "≤ 10"},
      {"smiles": "Cc1cccc(Nc2cc(Nc3cccc(NC(=O)/C=C/CN(C)C)c3)ncn2)c1", "IC50": "≤ 10"},
      {"smiles": "CN(C)C/C=C/C(=O)Nc1cccc(Nc2cc(Oc3ccc(Oc4ccccc4)cc3)ncn2)n1", "IC50": "≤ 10"},
      {"smiles": "C#Cc1cccc(Nc2cc(Nc3cccc(NC(=O)C=C)c3)ncn2)c1", "IC50": "≤ 10"},
      {"smiles": "C=CC(=O)Nc1cccc(Nc2cc(Nc3ccc(Br)cc3F)ncn2)c1", "IC50": "≤ 10"},
      {"smiles": "CN(C)C/C=C/C(=O)N(C)c1cccc(Nc2cc(Nc3ccc(Oc4ccccc4)cc3)ncn2)n1", "IC50": "≤ 10"},
      {"smiles": "CN(C)C/C=C/C(=O)Nc1cccc(Nc2cc(Oc3ccc(F)c(Cl)c3)ncn2)c1", "IC50": "≤ 10"},
      {"smiles": "Cc1cccc(Oc2cc(Nc3cccc(NC(=O)C=CCN(C)C)n3)ncn2)c1", "IC50": "≤ 10"},
      {"smiles": "C=CC(=O)Nc1cccc(Nc2cc(Nc3ccc(Oc4ccccc4)cc3)ncn2)c1", "IC50": "≤ 10"},
      {"smiles": "O=C(Nc1cccc(Nc2cc(Nc3ccc(F)c(Cl)c3)ncn2)c1)C1(C(F)(F)F)CC1", "IC50": "≤ 10"},
      {"smiles": "C=CC(=O)Nc1cccc(Nc2cc(Nc3ccccc3)ncn2)n1", "IC50": "≤ 10"},
      {"smiles": "CN(C)C/C=C/C(=O)Nc1cccc(Nc2cc(Nc3ccc(OCc4ccccn4)c(Cl)c3)ncn2)c1", "IC50": "≤ 10"},
      {"smiles": "C=CC(=O)N1CCC(Nc2cc(Nc3ccc(F)c(Cl)c3)ncn2)C1", "note": "(stereo not drawn)", "IC50": "≤ 10"},
      {"smiles": "C=CC(=O)Nc1ccc(Nc2cc(Nc3cccc(Br)c3)ncn2)cc1", "IC50": "≤ 10"},
      {"smiles": "CN(C)C/C=C/C(=O)Nc1cccc(Nc2cc(Nc3ccc(F)c(Cl)c3)ncn2)c1", "IC50": "≤ 10"},
      {"smiles": "COc1ccc(NC(=O)/C=C/CN(C)C)cc1Nc1cc(Nc2ccc(F)c(Cl)c2)ncn1", "IC50": "≤ 10"},
      {"smiles": "Cc1ccc(NC(=O)/C=C/CN(C)C)cc1Nc1cc(Nc2ccc(F)c(Cl)c2)ncn1", "IC50": "≤ 10"},
      {"smiles": "N#CC1(C(=O)Nc2cccc(Nc3cc(Nc4ccc(F)c(Cl)c4)ncn3)c2)CC1", "IC50": "≤ 10"},
      {"smiles": "C=CC(=O)Nc1cccc(Nc2cc(Nc3ccc(F)c(Cl)c3)ncn2)c1", "IC50": "≤ 10"},
      {"smiles": "C=CC(=O)Nc1cccc(Nc2cc(N3CCc4ccccc43)ncn2)c1", "IC50": "≤ 10"},
      {"smiles": "C=CC(=O)Nc1cccc(Nc2cc(Oc3cccc(C(F)(F)F)c3)ncn2)c1", "IC50": "≤ 10"},
      {"smiles": "C=CS(=O)(=O)Nc1cccc(Nc2cc(Nc3ccc(F)c(Cl)c3)ncn2)c1", "IC50": "≤ 10"},
      {"smiles": "C=CC(=O)Nc1cccc(Nc2cc(N(C)c3ccccc3)ncn2)c1", "IC50": "≤ 10"},
      {"smiles": "CC=CC(=O)c1cccc(Nc2cc(Nc3ccc(Oc4ccccc4)cc3)ncn2)c1", "IC50": "≤ 10"},
      {"smiles": "C=CC(=O)N1CCCC(Nc2cc(Nc3ccc(F)c(Cl)c3)ncn2)C1", "note": "(stereo not drawn)", "IC50": "≤ 10"},
      {"smiles": "C=CC(=O)Nc1cccc(Nc2cc(Oc3ccc(Oc4ccccc4)cc3)ncn2)n1", "IC50": "≤ 10"},
      {"smiles": "CC(Cl)C(=O)Nc1cccc(Nc2cc(Nc3ccc(F)c(Cl)c3)ncn2)c1", "note": "(stereo not drawn)", "IC50": "≤ 10"},
      {"smiles": "C=CC(=O)Nc1cccc(Nc2cc(Nc3cccc(C)c3)ncn2)c1", "IC50": "≤ 10"},
      {"smiles": "C/C=C/C(=O)Nc1cccc(Nc2cc(Nc3cccc(Br)c3)ncn2)c1", "IC50": "≤ 10"}
    ]}
  ]
}
